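48-hour exposure; five concentrations; linearly interpolated endpoints. At the GI50, growth is halved. TGI marks complete inhibition of growth.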

Common to all, as to assay: growth of human tumour cells (NCI), 48 h
In test [1] the test system is NCI-H226 lung.
Test [2] relates to NCI-H23 lung.
Test [3] concerns MOLT-4 leukemia.
Test [4] relates to HOP-92 NSCLC.
Test [5] concerns OVCAR-4 ovarian.
For test [6], the system named is LOX IMVI melanoma.
The subject of test [7] is MDA-MB-435.
The test system of test [8] is SK-MEL-2 melanoma.
The subject of test [9] is OVCAR-3 ovarian.
For test [10], the system named is MALME-3M melanoma.

On to `C=C1C(=O)O[C@H]2[C@H]1CC/C(COC(=O)N[C@H](Cc1c[nH]c3ccccc13)C(=O)OC)=C\CC[C@@]1(C)O[C@@H]21`, for which the GI50 in [1] was 2.2 µM; in [2], 4.3 µM; in test [3], 2.5 µM; in test [4] it was 1.94 µM; in test [5], 6.44 µM; in test [6], 1.36 µM. Moreover, the GI50 in [7] was 2.52 µM; in test [8], 7.21 µM; in test [9], 1.44 µM; in [10], 1.95 µM. In addition, the TGI in [1] stood at 5.73 µM; in [2], 17.7 µM; in [3] it was 7.54 µM; in [4], 5.87 µM; in [5], 20.4 µM; in test [6] it was 2.85 µM. Moreover, the TGI worked out at 10 µM in test [7], 23.8 µM in test [8], 3.07 µM in test [9] and 4.24 µM in [10].
`C=C1C(=O)O[C@H]2[C@H]1CC/C(COC(=O)/C=C\C(=O)NCc1ccc(Cn3c(=O)sn(-c4ccc(Cl)cc4)c3=O)cc1)=C\CC[C@@]1(C)O[C@@H]21`: the GI50 in [1] was 1.24 µM; in test [2], 0.884 µM; in test [3], 0.499 µM; in test [4], 0.569 µM; in test [5], 0.685 µM; in test [6] it was 0.193 µM. Besides, the GI50 was 0.647 µM in [7], 0.904 µM in test [8], 0.223 µM in test [9] and 0.852 µM in [10]. Also, the TGI in [1] was 4.28 µM; in test [2] it was 1.88 µM; in test [3] it was 3.27 µM; in test [4], 1.35 µM; in test [5] it was 1.37 µM; in [6] it was 0.789 µM. Further, the TGI in test [7] turned out to be 1.33 µM; in test [8], 1.89 µM; in test [9], 0.821 µM; in test [10], 1.63 µM.
As for `CCCCNCCCCCNc1cc(OC)cc2cccnc12`, the GI50 in test [1] was 23.8 µM; in test [2] it was 15.9 µM; in test [3], 18 µM; in [4] it was 2.77 µM; in test [5], 26.2 µM; in test [6], 34.8 µM. In addition, the GI50 in test [7] was 19.8 µM; in [8], 19.6 µM; in [9], 19 µM; in [10] it was 18 µM. Also, the TGI in [1] was 64.5 µM; in test [2], 31.7 µM; in test [3] it was 41.1 µM; in test [4], 23 µM; in test [5], more than 100 µM; in test [6], more than 100 µM. For the same compound, the TGI in test [7] stood at 41.4 µM; in test [8], 37.5 µM; in [9], 45.5 µM; in test [10] it was 42.9 µM.
On to `O=c1[nH]c(=O)n(C2OC(CO)C(O)C2O)cc1F` (stereo not given), for which the TGI in test [1] was 27.6 µM; in [2] it was more than 43.9 µM; in test [3], more than 100 µM; in test [4], more than 100 µM; in test [5], 17.7 µM; in test [6], 7.18 µM. The TGI was more than 77.9 µM in test [7], more than 84.6 µM in test [8], 10.9 µM in test [9] and 47.5 µM in test [10]. For the same compound, the GI50 in test [3] was 0.0428 µM; in [4], 24.9 µM; in test [6], 0.016 µM; in test [7], 0.0445 µM; in test [9], 0.0231 µM.
For `Nc1nc(N)c(-c2ccc(Cl)c(Cl)c2)c(CP(Cl)(Cl)(Cl)Br)n1`, the GI50 in [1] is 99.7 µM; in [2] it was 19.6 µM; in test [3], 28.6 µM; in [4], 12.6 µM; in [5], 53.8 µM; in [6], 2.72 µM. The GI50 in test [7] was 4.4 µM; in [8], 17.9 µM; in test [9], 21.1 µM; in test [10], 18.4 µM. The TGI in [1] is more than 100 µM; in test [2], more than 100 µM; in [3], more than 100 µM; in test [4] it was 54.3 µM; in test [5], more than 100 µM; in test [6], more than 100 µM. Moreover, the TGI in test [7] is 84.3 µM; in [8], 48.7 µM; in test [9], more than 100 µM; in [10], 72.1 µM.
In the case of `O=C(O)c1[nH]c2c([N+](=O)[O-])cc([N+](=O)[O-])cc2c1C(=O)O`, the TGI in test [1], in test [2], in [3], in test [4], in [5] and in [6] was more than 100 µM in each case. Further, the TGI in test [7], in test [8], in [9] and in test [10] was more than 100 µM throughout.
`C[C@@H](Oc1cc(-c2cnn(C3CCNCC3)c2)cnc1N)c1c(Cl)cc(F)cc1Cl`: the GI50 in [1] is 2.25 µM; in test [2], 1.93 µM; in [3], 0.866 µM; in test [4], 0.73 µM; in test [5] it was 2.86 µM; in test [6], 1.37 µM. The GI50 in test [7] was 0.749 µM; in test [8] it was 1.95 µM; in test [9], 4.13 µM; in [10], 1.27 µM. In addition, the TGI in test [1] turned out to be 9.87 µM; in test [2], 14.8 µM; in [3] it was 7.71 µM; in [4], 3.6 µM; in test [5] it was 10.8 µM; in test [6], 3.21 µM. The TGI in test [7] turned out to be 9.42 µM; in test [8], 5.41 µM; in test [9], 13.5 µM; in [10], 2.94 µM.
For `Cc1ccc(NC2=CC(=O)C(=O)c3ccccc32)cc1`, the GI50 is 1.92 µM in test [1]; 1.56 µM in test [2]; 3.71 µM in [3]; 5.71 µM in test [4]; 1.39 µM in test [5]; 2.11 µM in test [6]. The GI50 in [7] is 1.74 µM; in test [8], 1.86 µM; in test [9] it was 1.66 µM; in test [10], 1.63 µM. The TGI is 4.46 µM in [1]; 4.1 µM in test [2]; more than 100 µM in test [3]; 20.2 µM in test [4]; 2.72 µM in [5]; 6.45 µM in test [6]. For the same compound, the TGI in [7] amounted to 3.2 µM; in test [8] it was 4.06 µM; in [9], 4.86 µM; in test [10], 3.17 µM.

(Values after PubChem BioAssay (NCI).)
